Measurements as given in PMC2121212 (The Journal of Experimental Medicine, 2006).
No end group written: not given here.

Legend:
[1] = test system: antigen-specific T cell hybridomas stimulated by APCs that do or do not express DM; format: cell-based, murine; conditions: for DM enhancement (fold DM effect): overnight, CTLL/MTT read-out
[2] = test system: antigen-specific T cells stimulated by APCs that do or do not express DM; test: Presentation from native protein versus MalE; format: cell-based, murine; conditions: native protein vs MalE (Fig. S1)
I-A^d = target: T1, I-A^d (Mus musculus, UniProt P01921+P04228); format: binding, murine
T1 sequence (P04228 24-111 limits assumed): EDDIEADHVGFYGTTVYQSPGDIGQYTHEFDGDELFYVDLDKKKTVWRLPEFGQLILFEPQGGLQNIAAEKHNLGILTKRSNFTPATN
T1 sequence (P01921 28-122 limits assumed): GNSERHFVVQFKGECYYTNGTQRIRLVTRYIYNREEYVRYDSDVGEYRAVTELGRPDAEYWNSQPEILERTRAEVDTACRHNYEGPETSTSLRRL

[3] = test system: additional HEL [11–25]–specific and LACK [156–173]–specific T cell hybridomas; test: Presentation to additional independently derived T cell hybridomas; format: cell-based, murine; conditions: compared with original T cells
CD4 T cell response = conditions: in vivo response to variant when encoded in MalE (Fig. 4); ref [28]; cited from earlier work

In the case of “HA [126–138]: derived from the influenza hemagglutinin molecule (HNTNGVTAACSHE) [reference compound]”, the “Presentation of synthetic peptide pulsed on DM^+ vs DM^− APCs” value ([1]; APCs pulsed with peptide instead of protein (Fig. 1 G, H; Fig. 2 B)) is reported as “equivalent” and the “Effect of DM expression on presentation” value ([1]; epitope encoded within MalE, DM^+ vs DM^− APCs (Figs. 1 and 2, Table II)) is reported as “modestly antagonized”.

In the case of “HEL [11-25]: cryptic epitope derived from HEL, which has an unstable interaction with class II molecules (AMKRHGLDNYRGYSL; also: fluorescein (FITC) label, position not given here) [reference compound]”, the “Influence of protein context on DM-mediated presentation” value [2] is reported as “independent of the protein context from which the peptide epitope is derived” and the “Fold more protein required on APCs expressing DM (antagonism)” value [1] is reported as ~10 fold.

In the case of “R14Q, N19A, G22S: triple substitution HEL [11–25] variant (AMKQHGLDAYRSYSL; also: fluorescein (FITC) label, position not given here)”, the “Increase in kinetic stability” value (I-A^d) is reported as “threefold”, the “DM enhancement (fold DM effect)” value [1] is reported as 29.7 ± 7.6 fold and the “DM effect detected by additional T cell hybridomas” value [3] is reported as “confirmed this effect on the efficiency of presentation pattern with two additional, independently derived HEL [11–25]–specific hybridomas”.

In the case of “T128G: HA [126–138] P1 substitution (T128G) (HNGNGVTAACSHE)”, the “Immunogenicity of variant encoded in MalE” value (“Immunogenicity” for short) (CD4 T cell response) is listed as “cryptic”.

In the case of “T128M: high stability HA variant T128M (HNMNGVTAACSHE)”, the “Immunogenicity” value (CD4 T cell response) is listed as “immunogenic”.

For “T128Q: kinetic stability variant of HA [126–138] (HNQNGVTAACSHE)”, the “Immunogenicity” value (CD4 T cell response) is given as “immunogenic” and the “DM enhancement (fold DM effect)” value [1] is given as 3.5 ± 0.7 fold.

For “T128V, S136T: kinetic stability variant of HA [126–138] (HNVNGVTAACTHE)”, the “Immunogenicity” value (CD4 T cell response) is given as “cryptic”.

In the case of “V131A: HA [126–138] P4 substitution (V131A) (HNTNGATAACSHE)”, the “Immunogenicity” value (CD4 T cell response) is listed as “cryptic”.
